Measurements taken from patent publication US20230257364A1, “PYRIDAZINONE-BASED COMPOUNDS AS AXL, C-MET, AND MER INHIBITORS AND METHODS OF USE THEREOF” (CMG Pharmaceutical Co., Ltd., priority 2022, published 2023).

Experiments:
Assay type in all cases: biochemical
AXL = biological target: T1, AXL (Homo sapiens, UniProt P30530); assay: Enzymatic kinase assay (ADP-GLO), AXL; conditions: 10 μM ATP, poly (Glu4, Tyr1) substrate, 60 min room temperature, luminescence
T1 sequence (P30530 26-894): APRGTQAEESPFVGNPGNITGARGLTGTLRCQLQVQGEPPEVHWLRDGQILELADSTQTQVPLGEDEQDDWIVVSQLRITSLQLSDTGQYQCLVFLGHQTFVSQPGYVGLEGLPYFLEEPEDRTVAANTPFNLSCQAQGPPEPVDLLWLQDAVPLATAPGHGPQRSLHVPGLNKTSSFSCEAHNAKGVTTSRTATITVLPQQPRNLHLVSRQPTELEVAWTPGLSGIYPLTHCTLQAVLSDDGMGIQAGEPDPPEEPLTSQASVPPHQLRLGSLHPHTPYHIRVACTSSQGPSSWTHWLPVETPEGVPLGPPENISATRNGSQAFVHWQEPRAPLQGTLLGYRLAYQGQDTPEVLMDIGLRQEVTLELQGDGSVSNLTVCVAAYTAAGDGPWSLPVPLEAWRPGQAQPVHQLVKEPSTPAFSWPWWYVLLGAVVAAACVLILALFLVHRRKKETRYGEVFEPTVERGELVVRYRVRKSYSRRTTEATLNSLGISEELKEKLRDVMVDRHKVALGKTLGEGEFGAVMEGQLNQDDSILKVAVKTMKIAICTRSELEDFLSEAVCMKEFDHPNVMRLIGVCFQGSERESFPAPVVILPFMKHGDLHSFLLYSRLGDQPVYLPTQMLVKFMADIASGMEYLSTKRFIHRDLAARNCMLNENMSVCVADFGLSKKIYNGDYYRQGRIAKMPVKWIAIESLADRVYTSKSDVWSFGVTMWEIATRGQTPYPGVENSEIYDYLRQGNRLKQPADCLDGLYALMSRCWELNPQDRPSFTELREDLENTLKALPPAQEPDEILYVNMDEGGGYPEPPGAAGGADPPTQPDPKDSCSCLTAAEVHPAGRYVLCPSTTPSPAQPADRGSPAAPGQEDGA
Description: (§1) This example illustrates an enzymatic assay to determine the inhibitory activity of exemplary compounds of Formula (I) in an aspect of the invention.
(§2) All the kinase reactions were performed in 5 μL using tyrosine kinase buffer with 0.2 μg/μL poly (Glu4, Tyr1) substrate, 10 μM ATP, serial dilution of the inhibitor, and incubated at room temperature for 60 min. After the indicated incubation times, 5 μL ADP-GLO™ reagent (Promega, Madison, Wis.) was added to the reactions and the plate was incubated at room temperature for 40 min. Then, 10 μL of kinase detection reagent was added and after an incubation time of 40 min, luminescence was recorded and IC50 values were determined (Table 1). All 384-well assay plates were read using a GLOMAX™ Discover Microplate Luminometer from Promega (Madison, Wis.). To plot, analyze the data and calculate all kinase reaction biochemical values, both Microsoft Excel and Prism from GraphPad 7 Software (La Jolla, Calif.) were used.

C-MET = C-MET (Homo sapiens, UniProt P08581); assay: Enzymatic kinase assay (ADP-GLO), C-MET; conditions: 10 μM ATP, poly (Glu4, Tyr1) substrate, 60 min room temperature, luminescence; read-out: Enzymatic assay IC50 (nM) C-MET
C-MET, sequence (P08581 25-1390): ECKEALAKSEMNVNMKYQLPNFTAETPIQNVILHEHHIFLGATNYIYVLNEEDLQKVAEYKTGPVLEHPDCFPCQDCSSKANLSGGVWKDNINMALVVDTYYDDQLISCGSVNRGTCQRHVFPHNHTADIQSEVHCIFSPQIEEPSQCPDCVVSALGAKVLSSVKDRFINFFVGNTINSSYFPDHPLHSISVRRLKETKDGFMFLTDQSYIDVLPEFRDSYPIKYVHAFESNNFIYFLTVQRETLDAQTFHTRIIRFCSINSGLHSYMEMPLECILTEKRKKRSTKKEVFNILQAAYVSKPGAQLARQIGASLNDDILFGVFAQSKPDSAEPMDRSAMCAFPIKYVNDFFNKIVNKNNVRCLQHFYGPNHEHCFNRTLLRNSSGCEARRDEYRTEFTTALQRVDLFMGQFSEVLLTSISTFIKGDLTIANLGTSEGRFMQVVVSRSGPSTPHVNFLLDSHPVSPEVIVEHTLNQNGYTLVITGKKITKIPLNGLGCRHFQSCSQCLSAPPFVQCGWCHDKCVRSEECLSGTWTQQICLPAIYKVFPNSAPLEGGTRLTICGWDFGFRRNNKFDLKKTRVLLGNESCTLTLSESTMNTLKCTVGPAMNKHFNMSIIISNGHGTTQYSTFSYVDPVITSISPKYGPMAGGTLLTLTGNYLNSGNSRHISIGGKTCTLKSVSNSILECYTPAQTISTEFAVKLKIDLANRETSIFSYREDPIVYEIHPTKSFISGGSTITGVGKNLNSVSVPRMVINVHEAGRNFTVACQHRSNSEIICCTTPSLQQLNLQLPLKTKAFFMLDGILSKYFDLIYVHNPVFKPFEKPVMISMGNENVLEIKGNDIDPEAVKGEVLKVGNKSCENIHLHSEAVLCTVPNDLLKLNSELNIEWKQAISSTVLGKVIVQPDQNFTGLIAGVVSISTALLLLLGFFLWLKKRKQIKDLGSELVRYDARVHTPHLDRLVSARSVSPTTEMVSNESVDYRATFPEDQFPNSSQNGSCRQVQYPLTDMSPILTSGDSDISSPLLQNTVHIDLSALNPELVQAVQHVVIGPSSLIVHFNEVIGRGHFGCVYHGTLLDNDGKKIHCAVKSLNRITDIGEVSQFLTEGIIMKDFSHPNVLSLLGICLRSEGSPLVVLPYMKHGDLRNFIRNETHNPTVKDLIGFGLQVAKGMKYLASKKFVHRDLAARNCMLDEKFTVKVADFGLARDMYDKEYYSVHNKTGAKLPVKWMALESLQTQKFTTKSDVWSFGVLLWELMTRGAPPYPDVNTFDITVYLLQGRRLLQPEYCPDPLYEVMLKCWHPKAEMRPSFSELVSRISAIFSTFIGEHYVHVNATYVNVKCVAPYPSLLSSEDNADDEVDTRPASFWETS
Description: as §1
as §2, with “Then, 10 μL of kinase detection reagent was added and after an incubation time of 40 min, luminescence was recorded and IC50 values were determined (Table 1).” left out

MER = biological target: T2, MER (Homo sapiens, UniProt Q12866); assay: Enzymatic kinase assay (ADP-GLO), MER; conditions: 10 μM ATP, poly (Glu4, Tyr1) substrate, 60 min room temperature, luminescence
T2 sequence (Q12866 21-999): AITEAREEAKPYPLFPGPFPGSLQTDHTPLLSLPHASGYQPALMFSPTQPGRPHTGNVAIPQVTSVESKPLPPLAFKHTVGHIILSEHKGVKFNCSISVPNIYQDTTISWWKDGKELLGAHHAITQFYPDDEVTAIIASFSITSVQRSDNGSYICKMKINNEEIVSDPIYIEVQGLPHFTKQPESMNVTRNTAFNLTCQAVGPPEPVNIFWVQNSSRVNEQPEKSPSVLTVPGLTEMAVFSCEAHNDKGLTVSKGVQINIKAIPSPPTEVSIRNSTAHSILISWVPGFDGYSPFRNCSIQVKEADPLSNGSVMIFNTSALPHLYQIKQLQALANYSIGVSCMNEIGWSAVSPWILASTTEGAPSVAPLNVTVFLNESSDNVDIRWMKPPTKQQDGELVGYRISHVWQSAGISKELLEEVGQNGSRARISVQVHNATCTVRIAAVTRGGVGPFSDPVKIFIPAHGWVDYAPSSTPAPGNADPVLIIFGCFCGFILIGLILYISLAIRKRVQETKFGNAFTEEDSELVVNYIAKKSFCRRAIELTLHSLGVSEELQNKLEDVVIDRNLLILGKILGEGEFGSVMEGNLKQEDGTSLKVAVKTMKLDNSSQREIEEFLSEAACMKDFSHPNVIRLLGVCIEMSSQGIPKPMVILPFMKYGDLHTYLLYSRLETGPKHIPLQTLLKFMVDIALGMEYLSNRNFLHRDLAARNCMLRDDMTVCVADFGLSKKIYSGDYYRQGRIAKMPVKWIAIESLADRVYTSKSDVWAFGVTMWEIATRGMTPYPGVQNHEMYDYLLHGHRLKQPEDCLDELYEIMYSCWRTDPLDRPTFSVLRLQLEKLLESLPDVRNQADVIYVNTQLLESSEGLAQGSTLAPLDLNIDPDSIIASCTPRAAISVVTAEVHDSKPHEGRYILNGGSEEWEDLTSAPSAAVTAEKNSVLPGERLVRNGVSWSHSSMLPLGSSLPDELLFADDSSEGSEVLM
Description: as §1, §2

| SMILES | IC50 (AXL) [nM] | IC50 (C-MET) [nM] | IC50 (MER) [nM] |
| --- | --- | --- | --- |
| Nc1nccc(Oc2ccc(NC(=O)c3ccnn(-c4ccc(F)cc4)c3=O)cc2F)c1-c1ccc(Oc2ccccc2)cc1 [Example 20, N-(4-(2-amino-3-(4-phenoxyphenyl)pyridin-4-yloxy)-3-fluorophenyl)-2-4-(fluorophenyl)-3-oxo-2,3-dihydropyridazine-4-carboxamide] | < 1000 | > 1000 | < 1000 |
| CCCn1cc(-c2c(Oc3ccc(NC(=O)c4ccnn(-c5ccc(F)cc5)c4=O)cc3F)ccnc2N)cn1 [Example 21, N-(4-(2-amino-3-(1-propyl-1H-pyrazol-4-yl)pyridin-4-yloxy)-3-fluorophenyl)-2-(4-fluorophenyl)-3-oxo-2,3-dihydropyridazine-4-carboxamide] | < 10 | > 1000 | < 100 |
| CC(C)(C#Cc1c(Oc2ccc(NC(=O)c3ccnn(-c4ccc(F)cc4)c3=O)cc2F)ccnc1N)N1CCNCC1 [Example 22, N-(4-(2-amino-3-(3-methyl-3-(piperazin-1-yl)but-1-ynyl)pyridin-4-yloxy)-3-fluorophenyl)-2-(4-fluorophenyl)-3-oxo-2,3-dihydropyridazine-4-carboxamide] | < 10 | < 100 | < 100 |
| COCCN1CCN(C(C)(C)C#Cc2c(Oc3ccc(NC(=O)c4ccnn(-c5ccc(F)cc5)c4=O)cc3F)ccnc2N)CC1 [Example 23, N-(4-(2-amino-3-(3-(4-(2-methoxyethyl)piperazin-1-yl)-3-methylbut-1-ynyl)pyridine-4-yloxy)-3-fluorophenyl)-2-(4-fluorophenyl)-3-oxo-2,3-dihydropyridazine-4-carboxamide] | < 10 | < 100 | < 100 |
| COCCN1CCN(CC#Cc2c(Oc3ccc(NC(=O)c4ccnn(-c5ccc(F)cc5)c4=O)cc3F)ccnc2N)CC1 [Example 24] | < 10 | < 100 | < 10 |
| Nc1nccc(Oc2ccc(NC(=O)c3ccnn(-c4ccc(F)cc4)c3=O)cc2F)c1C#CC1CCNCC1 [Example 25, N-(4-(2-amino-3-(piperidin-4-ylethynyl)pyridine-4-yloxy)-3-fluorophenyl)-2-(4-fluorophenyl)-3-oxo-2,3-dihydropyridazine-4-carboxamide] | < 10 | < 10 | > 1000 |
| CN1CCC(C#Cc2c(Oc3ccc(NC(=O)c4ccnn(-c5ccc(F)cc5)c4=O)cc3F)ccnc2N)CC1 [Example 26, N-(4-(2-amino-3-((1-methylpiperidin-4-yl)ethynyl)pyridin-4-yloxy)-3-fluorophenyl)-2-(4-fluorophenyl)-3-oxo-2,3-dihydropyridazine-4-carboxamide] | < 10 | < 10 | > 1000 |
| COCCN1CCC(C#Cc2c(Oc3ccc(NC(=O)c4ccnn(-c5ccc(F)cc5)c4=O)cc3F)ccnc2N)CC1 [Example 27, N-(4-(2-amino-3-((1-(2-methoxyethyl)piperidin-4-yl)ethynyl)pyridin-4-yloxy)-3-fluorophenyl)-2-(4-fluorophenyl)-3-oxo-2,3-dihydropyridazine-4-carboxamide] | < 10 | < 10 | < 10 |
| CC(C)(C#Cc1c(Oc2ccc(NC(=O)c3ccnn(-c4ccc(F)cc4)c3=O)cc2F)ccnc1N)N1CCOCC1 [Example 28, N-(4-(2-amino-3-(3-methyl-3-morpholinobut-1-ynl)pyridin-4-yloxy)-3-fluorophenyl)-2-(4-fluorophenyl)-3-oxo-2,3-dihydropyridazine-4-carboxamide] | < 10 | < 10 | < 100 |
| CN1CCN(CC#Cc2c(Oc3ccc(NC(=O)c4ccnn(-c5ccc(F)cc5)c4=O)cc3F)ccnc2N)CC1 [Example 29, N-(4-(2-amino-3-(3-(4-methylpiperazin-1-yl)prop-1-ynyl)pyridin-4-yloxy)-3-fluorophenyl)-2-(4-fluorophenyl)-3-oxo-2,3-dihydropyridazine-4-carboxamide] | < 10 | < 10 | < 10 |
